# Measured values as given in patent publication US20150065717A1, “NIPECOTIC ACID DERIVATIVE AND USE THEREOF FOR MEDICAL PURPOSES” (Toray Industries, Inc., priority 2012, published 2015).
# Biological target: T1, recombinant human sEH (Homo sapiens, UniProt P34913)
# T1 construct: purchased Cayman
# T1 sequence (P34913 1-555): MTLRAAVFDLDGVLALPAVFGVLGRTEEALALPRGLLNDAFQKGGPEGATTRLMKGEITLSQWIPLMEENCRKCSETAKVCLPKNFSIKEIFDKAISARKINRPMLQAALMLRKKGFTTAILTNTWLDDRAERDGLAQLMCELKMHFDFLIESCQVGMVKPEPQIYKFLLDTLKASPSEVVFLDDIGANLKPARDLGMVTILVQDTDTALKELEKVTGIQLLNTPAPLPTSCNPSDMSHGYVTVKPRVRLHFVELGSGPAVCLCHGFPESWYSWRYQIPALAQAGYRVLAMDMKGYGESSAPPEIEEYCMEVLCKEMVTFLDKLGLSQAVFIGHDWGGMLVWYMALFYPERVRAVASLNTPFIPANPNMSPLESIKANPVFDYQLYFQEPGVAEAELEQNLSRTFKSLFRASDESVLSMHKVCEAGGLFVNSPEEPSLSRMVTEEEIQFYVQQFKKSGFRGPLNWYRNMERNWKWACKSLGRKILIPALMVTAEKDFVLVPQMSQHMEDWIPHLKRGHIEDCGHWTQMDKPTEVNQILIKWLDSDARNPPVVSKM
# Experiment: In vitro evaluation test for sEH inhibitory activity
# Format: biochemical
# Conditions: recombinant human sEH 0.026 μg/mL, fluorescent substrate 6.25 μmol/L, room temperature
# Experimental: According to the method described in a known document (Analytical Biochemistry, 2005, vol. 343, p. 66-75), the sEH inhibitory activity of each nipecotic acid derivative (I) or a pharmaceutically acceptable salt thereof was evaluated using human sEH.
# A recombinant human sEH (final concentration, 0.026 μg/mL; Cayman) was incubated with each test compound in 25 mM Bis-Tris-HCl buffer (pH 7.0) supplemented with 0.1 mg/mL BSA at room temperature for 30 minutes. Thereafter, cyano(6-methoxynaphthalen-2-yl)methyl 2-(3-phenyloxiran-2-yl)acetate (final concentration, 6.25 μmol/L; Cayman) was added thereto as a fluorescent substrate, and the resulting mixture was incubated at room temperature for 20 minutes. The reaction was then stopped by addition of ZnSO4 (final concentration, 0.2 mol/L), and the fluorescence intensity was measured (Fusion α (Packard); Excitation: 330 nm, Emission:485 nm).
# The fluorescence intensity observed with addition of neither sEH nor a test compound was regarded as the sEH enzymatic reaction rate of 0%, and the fluorescence intensity observed with addition of sEH but without addition of a test compound was regarded as the sEH enzymatic reaction rate of 100%. From the obtained fluorescence intensity, the sEH enzymatic reaction rate of each test compound was calculated to determine IC50.
row,Structure (SMILES),IC50
1,"CC(=O)NC1(C(=O)N2CCC[C@@H](C(=O)NCc3ccc(C#N)cc3OC(F)(F)F)C2)CCC1 [Example Compound 9, (R)-1-(1-acetamidocyclobutanecarbonyl)-N-(4-cyano-2-(trifluoromethoxy)benzyl)piperidine-3-carboxamide]",6.1 nM
2,"N#Cc1ccc(CNC(=O)[C@@H]2CCCN(C(=O)C3(NC(=O)CC4CC4)CCC3)C2)c(OC(F)(F)F)c1 [Example Compound 34, (R)—N-(4-cyano-2-(trifluoromethoxy)benzyl)-1-(1-(2-cyclopropylacetamido)cyclobutanecarbonyl)piperidine-3-carboxamide]",0.8 nM
3,"CC(C)(C)C(=O)N1CCC[C@@H](C(=O)NCc2ccc(C#N)cc2OC(F)(F)F)C1 [Example Compound 17, (R)—N-(4-cyano-2-(trifluoromethoxy)benzyl)-1-pivaloylpiperidine-3-carboxamide]",1.1 nM
4,"C[C@@H](NS(C)(=O)=O)C(=O)N1CCC[C@@H](C(=O)NCc2ccc(C#N)cc2OC(F)(F)F)C1 [Example Compound 25, (R)—N-(4-cyano-2-(trifluoromethoxy)benzyl)-1-((R)-2-(methylsulfonamido)propanoyl)piperidine-3-carboxamide]",1.8 nM
5,"CCS(=O)(=O)NC1(C(=O)N2CCC[C@@H](C(=O)NCc3ccc(C#N)cc3OC(F)(F)F)C2)CC1 [Example Compound 13, (R)—N-(4-cyano-2-(trifluoromethoxy)benzyl)-1-(1-(ethylsulfonamido)cyclopropanecarbonyl)piperidine-3-carboxamide]",1.4 nM
6,"CN(C1(C(=O)N2CCC[C@@H](C(=O)NCc3ccc(C#N)cc3OC(F)(F)F)C2)CC1)S(C)(=O)=O [Example Compound 18, (R)—N-(4-cyano-2-(trifluoromethoxy)benzyl)-1-(1-(N-methylmethylsulfonamido)cyclopropanecarbonyl)piperidine-3-carboxamide]",1.6 nM
7,"CC(C)[C@@H](NS(C)(=O)=O)C(=O)N1CCC[C@@H](C(=O)NCc2ccc(C#N)cc2OC(F)(F)F)C1 [Example Compound 12, (R)—N-(4-cyano-2-(trifluoromethoxy)benzyl)-1-((R)-3-methyl-2-(methylsulfonamido)butanoyl)piperidine-3-carboxamide]",0.3 nM
8,"N#Cc1ccc(CNC(=O)[C@@H]2CCCN(C(=O)C3(C(F)(F)F)CC3)C2)c(OC(F)(F)F)c1 [Example Compound 4, (R)—N-(4-cyano-2-(trifluoromethoxy)benzyl)-1-(1-(trifluoromethyl)cyclopropanecarbonyl)piperidine-3-carboxamide]",1 nM

# Further lines, results first:
row,IC50,Structure (SMILES)
1,1.7 nM,"N#Cc1ccc(CNC(=O)[C@@H]2CCCN(C(=O)C3(NC(=O)C4CC4)CCC3)C2)c(OC(F)(F)F)c1 [Example Compound 29, (R)—N-(4-cyano-2-(trifluoromethoxy)benzyl)-1-(1-(cyclopropanecarboxamide)cyclobutanecarbonyl)piperidine-3-carboxamide]"
2,2.6 nM,"CC(C)(NS(C)(=O)=O)C(=O)N1CCC[C@@H](C(=O)NCc2ccc(Cl)cc2OCC(F)(F)F)C1 [Example Compound 10, (R)—N-(4-chloro-2-(2,2,2-trifluoroethoxy)benzyl)-1-(2-methyl-2-(methylsulfonamido)propanoyl)piperidine-3-carboxamide]"
3,1 nM,"CC(C)C(=O)NC1(C(=O)N2CCC[C@@H](C(=O)NCc3ccc(C#N)cc3OC(F)(F)F)C2)CCC1 [Example Compound 6, (R)—N-(4-cyano-2-(trifluoromethoxy)benzyl)-1-(1-isobutylamidocyclobutanecarbonyl)piperidine-3-carboxamide]"
4,3.5 nM,"CS(=O)(=O)NC1(C(=O)N2CCC[C@@H](C(=O)NCc3ccc(C#N)cc3OC(F)(F)F)C2)CC1 [Example Compound 3, (R)—N-(4-cyano-2-(trifluoromethoxy)benzyl)-1-(1-(methylsulfonamido)cyclopropanecarbonyl)piperidine-3-carboxamide]"
